Converted amounts (≈) assume the structure as drawn. Like-named read-outs stand apart in the source and are kept apart here.
Assays:
myosin II = conditions: no reference given; cited from earlier work
M2 cells = assay: Inhibition of blebbing (blebbing index) of M2 cells; format: cell-based, human
Description: Next, we compared the non-muscle myosin II inhibition by para-aminoblebbistatin, para-nitroblebbistatin and blebbistatin in human melanoma (M2) and HeLa cells. As blebbistatin acquired its name from its ability to block blebbing of M2 cells, we compared blebbing indices[17] of M2 cells in time, incubated in the three different myosin II inhibitors at different concentrations (Fig. 3c–e). Even 5 μM concentrations of the myosin II inhibitors achieved significant decrease in the blebbing indices of the cells within an hour, whereas higher concentrations of the inhibitors completely stopped blebbing of the cells within >40–60 minutes (10 μM) or >20 minutes (25 and 50 μM).
For blebbing index determination, M2 cells were incubated for 30 minutes in PBS in every case prior to the addition of inhibitors, in order to initiate extensive blebbing. Blebbing of the cells was monitored before as well as after inhibitor addition to the cells. DMSO concentration was 0.1 vol/vol% in all experiments. Blebbing index was calculated by summing the initiated blebs in a 5-minute interval (starting at the indicated time points) on a given standard area[17] (whole cells with similar size, diameter = 12 ± 1 μm) and normalizing it to the blebbing index prior to inhibitor treatment.

[1] = system: cldnb:gfp zebrafish embryos; assay: Posterior lateral line primordium (pLLp) migration; format: in vivo, zebrafish (Danio rerio); conditions: 20 μM, 24 hours of incubation
Description: However, the highly fluorescent, dense precipitates of blebbistatin disturb imaging in the GFP channel of the microscope. […] In this experiment, cldnb:gfp zebrafish embryos were imaged by an epifluorescent microscope after 24 hours of incubation in the presence of 20 μM concentrations of the indicated inhibitors (Fig. 4d) in order to detect the effect of myosin II inhibition on the proliferating leading edge of the posterior lateral line primordium (pLLp)[21] and visualize the effect of the precipitates by epifluorescent microcopy. […] In the case of para-aminoblebbistatin treatment, the GFP signal of the migrating pLLp can be visualized clearly, while the precipitates of the two other inhibitors highly disturbed the imaging.

[2] = Solubility assays in assay buffer (supernatant concentration after centrifugation); conditions: room temperature
Description: 50 μM of the inhibitors were dissolved in assay buffer (see Experimental Procedures) containing 0.1 or 1 vol/vol% DMSO, centrifuged at the indicated times and the concentration of the supernatants were determined at each time point (Fig. 2a,b).
The DMSO content was 1%. […] The experiments were repeated three times.

[3] = target: T1, rabbit skeletal muscle myosin S1 (SkS1) (Oryctolagus cuniculus, UniProt Q28641); assay: Steady state actin activated ATPase, SkS1; format: biochemical; conditions: 45 μM actin, 25 °C
T1 construct: SkS1 (rabbit skeletal S1 fragment); from tissue; host or cells: rabbit skeletal muscle
T1 sequence (Q28641 1-844 limits assumed): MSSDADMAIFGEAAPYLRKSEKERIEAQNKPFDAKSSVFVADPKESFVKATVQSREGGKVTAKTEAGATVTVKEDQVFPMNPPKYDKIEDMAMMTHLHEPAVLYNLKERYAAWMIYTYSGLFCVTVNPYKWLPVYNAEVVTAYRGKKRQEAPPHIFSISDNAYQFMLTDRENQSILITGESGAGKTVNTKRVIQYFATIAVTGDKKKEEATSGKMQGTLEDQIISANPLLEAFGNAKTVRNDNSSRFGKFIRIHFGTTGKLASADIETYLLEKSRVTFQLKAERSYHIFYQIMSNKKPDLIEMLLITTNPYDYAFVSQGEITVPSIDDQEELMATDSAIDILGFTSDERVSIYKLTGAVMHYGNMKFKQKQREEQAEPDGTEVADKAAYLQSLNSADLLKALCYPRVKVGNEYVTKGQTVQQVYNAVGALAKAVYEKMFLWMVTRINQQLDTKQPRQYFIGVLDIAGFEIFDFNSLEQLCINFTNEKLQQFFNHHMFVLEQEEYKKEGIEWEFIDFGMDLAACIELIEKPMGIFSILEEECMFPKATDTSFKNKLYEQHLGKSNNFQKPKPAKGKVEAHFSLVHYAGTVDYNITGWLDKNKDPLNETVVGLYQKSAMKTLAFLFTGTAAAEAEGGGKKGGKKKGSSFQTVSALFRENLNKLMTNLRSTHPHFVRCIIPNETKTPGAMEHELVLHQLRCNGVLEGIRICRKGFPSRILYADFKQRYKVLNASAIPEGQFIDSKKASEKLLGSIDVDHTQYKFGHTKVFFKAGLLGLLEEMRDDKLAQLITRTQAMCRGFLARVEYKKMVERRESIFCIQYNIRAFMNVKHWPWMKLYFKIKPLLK
T1 sequence (P02602 whole entry partner, the tested form may be a part): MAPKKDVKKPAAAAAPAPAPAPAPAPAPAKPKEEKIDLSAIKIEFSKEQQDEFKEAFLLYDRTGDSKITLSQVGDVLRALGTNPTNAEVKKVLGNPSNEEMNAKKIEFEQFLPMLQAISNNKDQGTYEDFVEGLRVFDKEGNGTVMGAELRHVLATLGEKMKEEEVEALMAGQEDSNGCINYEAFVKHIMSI
Description: […]. Myosin and actin together with the indicated concentration of the inhibitor were pre-incubated for 5 minutes at room temperature and the measurements were initiated with 1 mM ATP. Data were corrected for background ATPase activity of actin. G-actin was prepared accordingly from rabbit skeletal muscle[24] and polymerized by 2 mM MgCl2 for 1 hour at room temperature. Measurements were performed in low salt buffer containing 5 mM HEPES, 2 mM MgCl2, 0.1 mM EGTA and 2 mM DTT at pH 7.2 or assay buffer containing 20 mM HEPES, 40 mM NaCl, 4 mM MgCl2 at pH 7.3 for basal ATPase activity measurements with DdMD.

[4] = target: T2, Dictyostelium discoideum myosin II motor domain (DdMD) (Dictyostelium discoideum, UniProt P08799); assay: biochemical; conditions: for IC50: 20 °C
T2 construct: Dictyostelium discoideum myosin II motor domain (DdMD)
T2 sequence (P08799 86-759 limits assumed): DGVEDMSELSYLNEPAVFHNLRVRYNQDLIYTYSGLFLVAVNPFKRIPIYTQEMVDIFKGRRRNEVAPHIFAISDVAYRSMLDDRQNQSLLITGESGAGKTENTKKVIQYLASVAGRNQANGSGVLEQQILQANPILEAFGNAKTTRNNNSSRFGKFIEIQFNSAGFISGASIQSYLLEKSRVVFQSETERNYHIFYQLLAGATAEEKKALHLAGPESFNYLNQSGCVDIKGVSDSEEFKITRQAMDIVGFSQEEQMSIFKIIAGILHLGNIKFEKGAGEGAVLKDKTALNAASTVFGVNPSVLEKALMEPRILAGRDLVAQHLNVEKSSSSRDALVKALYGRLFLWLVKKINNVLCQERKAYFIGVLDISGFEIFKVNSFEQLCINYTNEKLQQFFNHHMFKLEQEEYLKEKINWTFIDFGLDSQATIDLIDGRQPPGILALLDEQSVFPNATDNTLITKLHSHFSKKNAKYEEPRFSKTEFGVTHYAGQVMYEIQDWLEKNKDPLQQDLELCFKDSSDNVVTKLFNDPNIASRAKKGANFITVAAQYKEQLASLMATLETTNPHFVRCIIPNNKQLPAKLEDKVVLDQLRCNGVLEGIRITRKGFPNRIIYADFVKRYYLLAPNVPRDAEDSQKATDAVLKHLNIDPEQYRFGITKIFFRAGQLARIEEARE
Description: Myosin and actin together with the indicated concentration of the inhibitor were pre-incubated for 5 minutes at room temperature and the measurements were initiated with 1 mM ATP. Data were corrected for background ATPase activity of actin. G-actin was prepared accordingly from rabbit skeletal muscle[24] and polymerized by 2 mM MgCl2 for 1 hour at room temperature. Measurements were performed in low salt buffer containing 5 mM HEPES, 2 mM MgCl2, 0.1 mM EGTA and 2 mM DTT at pH 7.2 or assay buffer containing 20 mM HEPES, 40 mM NaCl, 4 mM MgCl2 at pH 7.3 for basal ATPase activity measurements with DdMD.

[5] = system: zebrafish skeletal muscle; assay: Fast escape response (C-start), maximal angular velocity; format: in vivo, zebrafish (Danio rerio); conditions: 2 μM
Description: (§1) Since the myosin II inhibitors decrease the ATPase activity of SkS1 in vitro, we tested their inhibition on zebrafish skeletal muscle in vivo. We investigated the fast escape response (C-start) reflex of 6 dpf fish evoked by standardized tapping stimuli (Video 1). […] The velocity of the rotating heads of the embryos were quantified (maximal angular velocity) in the absence and in the presence of increasing concentrations of the myosin II inhibitors (2, 5, 10, 20 μM), monitored for 4 hours. The half maximal effective concentration (EC50) values for the inhibition of the maximal angular velocity by the myosin II inhibitors are below 2 μM since even at 2 μM the inhibitory effects were >90% for all inhibitors. We experienced that the inhibitory effect of para-aminoblebbistatin is exerted much slower than that of blebbistatin and para-nitroblebbistatin, probably due to its slower uptake (half inhibitions at […], respectively) (Supplementary Figure 1). To further evaluate the specificity of blebbistatin and its derivatives on different myosin II isoforms, we examined the effect of the inhibitors on 6 dpf (days post fertilization) zebrafish heart muscle in vivo. We monitored heart beating and the amplitude of heart muscle contraction before and after the addition of 20 μM of the inhibitors to the specimens.
(§2) The tapping force was standardized. […] For the cytotoxicity assay, zebrafish embryos were incubated in E3 medium containing 0 μM (Control), 5 μM, 10 μM or 20 μM of para-aminoblebbistatin, para-nitroblebbistatin or blebbistatin in 0.1 vol/vol% final concentration of DMSO and monitored for 70 hours.

HeLa cells = assay: Wound healing assay (cell motility); format: cell-based, human; conditions: 20 μM, 24 hours, uncoated glass; 100% = total diameter of the wound; control 30.6 ± 5.4%
Description: For wound healing assays, 200 μl of HeLa cells were plated on 35 mm borosilicate glass imaging dishes at 300,000 cells/ml concentrations and incubated for 24 hours. 1 hour prior to wounding, cells were incubated in 20 μM of the different myosin II inhibitors. After one hour, scratches were made with pipette tips in monolayer cultures and the motility of cells for occupying the wound was monitored for 24 hours with a Foculus Digital Camera (IEEE1394). Analysis of cell motility was carried out by ImageJ, by measuring the distance between two lines fitted on the two sides of the approaching cell edges created by the pipette tips.

[6] = system: HeLa Kyoto H2B-mCherry eGFP-α-tubulin cells; assay: Cell growth assay (cell number, cytokinesis)
Description: Cells incubated in different concentrations of the inhibitors were counted on each day for three days.

[7] = target: T1, rabbit skeletal muscle myosin S1 (SkS1); assay: Steady state basal ATPase, SkS1; format: biochemical; conditions: 25 °C
zebrafish heart muscle = assay: Heart beating and amplitude of heart muscle contraction; format: in vivo, zebrafish (Danio rerio); conditions: 20 μM, 6 dpf
Description: as §1, §2

zebrafish embryo = system: zebrafish embryo; set-up: method as in PMID 24954740; conditions: after 24 hours of incubation; cited from earlier work

| Compound | IC50 (myosin II) [µM] | Time constant τ of inhibition of blebbing (M2 cells; 5 μM) [min] | Time constant τ of inhibition of blebbing (M2 cells; 10 μM) [min] | Time constant τ of inhibition of blebbing (M2 cells; 25 μM) [min] | Effect on pLLp migration [1] | Solubility ([2]; 0.1 vol/vol% DMSO in assay buffer) [µM] | Solubility ([2]; 1 vol/vol% DMSO in assay buffer) [µM] | IC50 [3] [µM] | Maximal inhibition of actin activated ATPase of DdMD [4] | Maximal inhibition of basal ATPase of DdMD [4] | IC50 ([4]; 15 μM actin, read-out: IC50 actin activated ATPase activity of DdMD) [µM] | IC50 ([4]; read-out: IC50 basal ATPase of DdMD) [µM] | Half inhibition time of maximal angular velocity [5] [h] | Relative migration of HeLa cells (HeLa cells) [%] | Fold weaker IC50 than blebbistatin's (cell proliferation) ([6]; day 3) | IC50 ([6]; read-out: IC50 of the inhibition of cell proliferation, cell number at day 3) [µM] | IC50 [7] [µM] | Time within which amplitude of contraction and blood circulation dropped drastically (zebrafish heart muscle) | Toxicity in live zebrafish embryo tests (zebrafish embryo) |
| --- | --- | --- | --- | --- | --- | --- | --- | --- | --- | --- | --- | --- | --- | --- | --- | --- | --- | --- | --- |
| Cc1cc2c(cc1[N+](=O)[O-])N=C1N(c3ccccc3)CCC1(O)C2=O (stereo not shown) [nitroblebbistatin] | 27.5 |  |  |  |  |  |  |  |  |  |  |  |  |  |  |  |  |  |  |
| Cc1ccc2c(c1)C(=O)[C@]1(O)CCN(c3ccc([N+](=O)[O-])cc3)C1=N2 [para-nitroblebbistatin] |  | 21.9 ± 4.6 | 11.7 ± 0.5 | 5.9 ± 0.2 | halted pLLp migration | 3.3 ± 0.1 (≈ 1.11 µg/mL) | 3.6 ± 0.2 (≈ 1.21 µg/mL) | 0.1 ± 0.004 | ~ 100% | ~ 100% | 3.4 ± 0.3 | 5.3 ± 1.6 | 1.3 | 53.2 ± 17.6 | 2–3 times | 14.7 ± 4.2 | 0.3 ± 0.04 | within the first hour | negligible |
